How the values were obtained:
[1] = target: HIV integrase (Human immunodeficiency virus type 1 group M subtype B, UniProt P04585); assay: integrase inhibition assay (microtiter plate, substrate DNA / target DNA); type: biochemical; conditions: integrase 30 pmol, incubated at 30° C. for 1 hour, OD at 405 nm, concentration at percent inhibition 50%; for IC50: read-out: MIA, IC50 (ug/ml) (converted)
Procedure: The inhibitory activities against integrase of the presnt compounds were determined by the assay described below.
(1) Preparation of DNA Solutions
Substrate DNA and target DNA synthesized by Amersham Pharmacia Biotech, which sequences were indicated below, were dissolved in KTE buffer (composition: 100 mM KCl, 1 mM EDTA, 10 mM Tris-HCl (pH 7.6)) at a concentration of 2 pmol/μl and 5 pmol/μl, respectively. The DNA solutions were heated and then slowly cooled so that they were annealed with each complement.
(Sequence of Substrate DNA)
(2) Calculations of the percent inhibitions (IC50 values of test compounds)
Streptavidin, obtained from Vector Laboratories, was dissolved in 0.1 M carbonate buffer (composition: 90 mM Na2CO3, 10 mM NaHCO3) at a concentration of 40 μg/ml. After coating each well of microtiter plates (obtained from NUNC) with 50 μl of the above solution at 4° C. over night, each well was washed twice with PBS (composition: […], 0.27 mM KCl, 0.43 mM Na2HPO4, 0.14 mM KH2PO4) and blocked with 300 μl of 1% skim milk in PBS for 30 min. Additionally, each well was washed twice with PBS and added with 50 μl of the substrate DNA solution (2 pmol/μl). The microtiter plates were kept at room temperature for 30 min. Then, each well was washed twice with PBS and once with H2O.
Subsequently, to the each well prepared above were added 45 μl of the reaction buffer prepared from 12 μl of the buffer (composition: 150 mM MOPS (pH 7.2), 75 mM MnCl2, 50 mM 2-mercaptoethanol, 25% glycerol, 500 μg/ml bovine serum albumin-fraction V), 1 μl of target DNA (5 pmol/μ), and 32 μl of the distilled water. Additionally, 6 μl of either a test compound in DMSO or DMSO for positive control (PC) was mixed with the above reaction buffer, then 9 μl of an integrase solution (30 pmol) was added thereto and the mixture was mixed well. To the well of negative control (NC) was added 9 μl of the integrase dilution buffer (composition: 20 mM MOPS (pH7.2), 400 mM potassium glutamate, 1 mM EDTA, 0.1% NP-40, 20% glycerol, 1 mM DTT, 4 M urea).
The microtiter plates were incubated at 30° C. for 1 hour. The reaction solution was removed and each well was washed twice with PBS. Subsequently, each well of the microtiter plates was filled with 100 μl of anti-digoxigenin antibody labeled with alkaline phosphatase (Sheep Fab fragment: obtained from Boehringer) and incubated at 30° C. for 1 hour. Then, each well was washed twice with 0.05% Tween20 in PBS and once with PBS. Next, 150 μl of the Alkaline phosphatase reaction buffer (composition: 10 mM p-Nitrophenylphosphate (obtained from Vector Laboratories), 5 mM MgCl2, 100 mM NaCl, 100 mM Tris-HCl (pH 9.5)) was added to each well. The microtiter plates were incubated at 30° C. for 2 hours and the reaction was terminated by the addition of 50 μl of 1 N NaOH solution. The optical density (OD) at 405 nm of each well was measured and the percent inhibition was determined by the following expression. The percent inhibition (%)=100[1−{(C abs.−NC abs.)/(PC abs.−NC abs.)}]
C abs.; the OD of the well of the test compound
NC abs.: the OD of the negative control (NC)
PC abs.: the OD of the positive control (PC)
When the percent inhibition (%) is X % at a concentration of x μg/ml and the percent inhibition (%) is Y % at a concentration of y μg/ml, one of which is more than 50% and the other is less than 50%, IC50 can be determined by the following expression. IC50 (μg/ml)=x−{(X−50)(x−y)/(X−Y)}
Compound No. in the Table 1 is the same as compound No. of the above Examples.

| Structure (SMILES) | IC50 [1] [µM] | melting point [°C] | MIA, IC50 [1] [µg/mL] |
| --- | --- | --- | --- |
| COC(=O)c1cc(C(=O)NCCCO)c2cc(Cc3ccc(F)cc3)cnc2c1O [Compound I-58, 3-(4-Fluorobenzyl)-8-hydroxy-5-(3-hydroxypropylcarbamoyl)quinoline-7-carboxylic acid methyl ester] | 0.388 |  |  |
| COC(=O)c1nc(C#CCO)c2cc(Cc3ccc(F)cc3)cnc2c1O [Compound A-18, Methyl 3-(4-fluorobenzyl)-8-hydroxy-5-(3-hydroxy-1-propynyl)-1,6-naphthylidine-7-carboxylate] | 0.655 | 205 to 208 |  |
| COCC(C)OC(=O)c1ncc2cc(Cc3ccc(F)cc3)cnc2c1O (stereo not drawn) [Compound A-79, 3-(4-Fluorobenzyl)-8-hydroxy[1,6]naphthylidine-7-carboxylic acid [2-(1-methoxy)propyl]ester] | 0.351 | 130 to 131 |  |
| CNC(=O)c1nc(C#CCO)c2cc(Cc3ccc(F)cc3)cnc2c1O [Compound A-98, 3-(4-Fluorobenzyl)-8-hydroxy-5-(3-hydroxy-1-propyn-1-yl)-[1,6]naphthylidine-7-carboxylic acid methyl amide] | 0.52 | 185 |  |
| CCC(=O)c1ncc2cc(Cc3ccc(F)cc3)cnc2c1O [Compound A-19, 1-[3-(4-fluorobenzyl)-8-hydroxy-1,6-naphthylidin-7-yl]propan-1-one] |  |  | 0.12 |
| NC(=O)c1cc(C(=O)O)c(O)c2ncc(Cc3ccc(F)cc3)cc12 [Compound I-7, 5-Carbamoyl-3-(4-fluorobenzyl)-8-hydroxyquinoline-7-carboxylic acid] | 0.705 | 265 to 266 |  |
| COC(=O)c1nc(NC(=O)c2ccco2)c2cc(Cc3ccc(F)cc3)cnc2c1O [Compound A-66, 3-(4-Fluorobenzyl)-5-(frane-2-carbonyl)amino-8-hydroxy[1,6]naphthylidine-7-carboxylic acid methyl ester] | 0.688 | 200 to 202 |  |
| COC(=O)c1cc(C(=O)N2CCOCC2)c2cc(Cc3ccc(F)cc3)cnc2c1O [Compound I-26, (4-Fluorobenzyl)-8-hydroxy-5-(morpholine-4-carbonyl)quinoline-7-carboxylic acid methyl ester] |  |  | 0.37 |
| COC(=O)c1cc(NC(C)=O)c2cc(Cc3ccc(F)cc3)cnc2c1O [Compound I-10, 5-Acetylamino-3-(4-fluorobenzyl)-8-hydroxyquinoline-7-carboxylic acid methylester] | 1.3 | 243 to 245 |  |
| COC(=O)c1nc(NC(=O)C(=O)N(C)C)c2cc(Cc3ccc(F)cc3)cnc2c1O [Compound A-115, 5-[[(Dimethylamino)oxalyl]amino]-3-(4-fluorobenzyl)-8-hydroxy[1,6]naphthylidine-7-carboxylic acid methyl ester] | 0.422 |  |  |
| CCOC(=O)Nc1nc(C(=O)OC)c(O)c2ncc(Cc3ccc(F)cc3)cc12 [Compound A-42, 5-[(Ethoxycarbonyl)amino]-3-(4-fluorobenzyl)-8-hydroxy[1,6]naphthylidine-7-carboxylic acid methyl ester] | 0.576 | 247 to 249 |  |
| CN=C(Nc1cc(C(=O)OC)c(O)c2ncc(Cc3ccc(F)cc3)cc12)SC [Compound I-19, 5-(2,3-Dimethylisothioureido)-3-(4-fluorobenzyl)-8-hydroxyquinoline-7-carboxylic acid methylester] | 1.04 | 198.5 to 199.5 |  |
| CC(=O)N1CCC(OC(=O)c2ncc3cc(Cc4ccc(F)cc4)cnc3c2O)CC1 [Compound A-82, 3-(4-Fluorobenzyl)-8-hydroxy[1,6]naphthylidine-7-carboxylic acid 1-acetylpiperidine-4-yl ester] | 0.26 | 163 to 165 |  |
| COC(=O)c1cc(NC(C)C)c2cc(Cc3ccc(F)cc3)cnc2c1O [Compound I-14, 3-(4-Fluorobenzyl)-8-hydroxy-5-isopropylaminoquinoline-7-carboxylic acid methylester] | 1.19 | 121 to 122 |  |
| COC(=O)c1nc(C#CCNS(C)(=O)=O)c2cc(Cc3ccc(F)cc3)cnc2c1O [Compound A-50, 3-(4-Fluorobenzyl)-8-hydroxy-5-[3-(methanesulfonyamino)propyn-1-yl][1,6]naphthylidine-7-carboxylic acid methyl ester] | 0.248 | 223 to 225 |  |
| COC(=O)c1cc(C(=O)NCC(=O)N(C)C)c2cc(Cc3ccc(F)cc3)cnc2c1O [Compound I-64, 5-(Dimethylcarbamoylmethylcarbamoyl)-3-(4-fluorobenzyl)-8-hydroxyquinoline-7-carboxylic acid methyl ester] | 0.979 | 198 to 199 |  |
| COC(=O)c1nc(NS(C)(=O)=O)c2cc(Cc3ccc(F)cc3)cnc2c1O [Compound A-9, Methyl 3-(4-fluorobenzyl)-8-hydroxy-5-methanesulfonylamino-1,6-naphthylidine-7-carboxylate] | 0.222 | 205 to 210 |  |
| COC(=O)c1cc(CO)c2cc(Cc3ccc(F)cc3)cnc2c1O [Compound I-117, 3-(4-Fluorobenzyl)-8-hydroxy-5-hydroxymethylquinoline-7-carboxylic acid methyl ester] | 0.208 | 142 to 143 |  |
| COC(=O)c1nc(NC(C)=O)c2cc(Cc3ccc(F)cc3)cnc2c1O [Compound A-10, Methyl 5-acetylamino-3-(4-fluorobenzyl)-8-hydroxy-1,6-naphthylidine-7-carboxylate] | 0.379 | 263 to 267 |  |
| COC(=O)c1nc(C(=O)OC)c2cc(Cc3ccc(F)cc3)cnc2c1O [Compound A-15, Dimethyl 3-(4-fluorobenzyl)-8-hydroxy-1,6-naphthylidine-5,7-dicarboxylate] | 0.783 | 191 to 194 |  |
| COC(=O)c1nc(N2CCCCS2(=O)=O)c2cc(Cc3ccc(F)cc3)cnc2c1O [Compound A-22, Methyl 3-(4-fluorobenzyl)-5-(1,1-dioxido-1,2-thiazinan-2-yl)-8-hydroxy-1,6-naphthylidine-7-carboxylate] | 0.427 |  |  |
| COC(=O)c1cc(NC=O)c2cc(Cc3ccc(F)cc3)cnc2c1O [Compound I-13, 3-(4-Fluorobenzyl)-5-formylamino-8-hydroxyquinoline-7-carboxylic acid methyl ester] | 1.04 |  |  |
| COC(=O)c1cc(C(=O)NC(C)C(=O)OC)c2cc(Cc3ccc(F)cc3)cnc2c1O (stereo not drawn) [Compound I-54, (4-Fluorobenzyl)-8-hydroxy-5-(1-methoxycarbonylethylcarbamoyl)quinoline-7-carboxylic acid methyl ester] |  |  | 0.38 |
| COC(=O)c1cc(C(=O)O)c2cc(Cc3ccc(F)cc3)cnc2c1O.NCCN |  | 164 |  |
| COC(=O)c1cc(N2CCNC2=O)c2cc(Cc3ccc(F)cc3)cnc2c1O |  | 248 to 250 |  |
| COC(=O)c1cc(C(=O)NN)c2cc(Cc3ccc(F)cc3)cnc2c1O |  | 156 to 157 |  |
| COC(=O)c1cc(C(=O)NC2CCN(C(C)=O)CC2)c2cc(Cc3ccc(F)cc3)cnc2c1O |  | 214 to 215 |  |
| COC(=O)c1cc(C(=O)N2CCCC(=O)C2)c2cc(Cc3ccc(F)cc3)cnc2c1O |  | 228 to 229 |  |
| COC(=O)c1cc(C(N)=O)c2cc(Cc3ccc(F)cc3)cnc2c1OC(C)=O |  | 206 |  |

— US7358249B2, “Heterocyclic compounds having inhibitory activity against HIV integrase” (Shionogi & Co., Ltd., priority 2002, dated 2008)
